Measurements as given in patent US9096559B2, “4-carboxybenzylamino derivatives as histone deacetylase inhibitors” (Merck Sharp & Dohme Corp., priority 2007, dated 2015).

Assays:
[1] = molecular target: histone deacetylase, subtype 1 (HDAC1) (Homo sapiens (Human), UniProt Q13547); assay: HDAC1-Flag in vitro deacetylation assay; assay type: biochemical; conditions: IP = inflection point; read-out: HDAC1 IP (inflection point)
Procedure: Novel compounds were tested for their ability to inhibit histone deacetylase, subtype 1 (HDAC1) using an in vitro deacetylation assay. The enzyme source for this assay was an epitope-tagged human HDAC1 complex immuno-purified from stably expressing mammalian cells. The substrate consisted of a commercial product containing an acetylated lysine side chain (BIOMOL Research Laboratories, Inc., Plymouth Meeting, Pa.). Upon deacetylation of the substrate by incubation with the purified HDAC1 complex, a fluorophore is produced that is directly proportional to the level of deacetylation.

[2] = test system: human cervical cancer (HeLa) and colon carcinoma (HCT116) cells; assay: ATP (Vialight) cell proliferation assay, 72 hr; assay type: cell-based; conditions: IP = inflection point, cell line not given, read-out: Prol-72 hr IP (inflection point)
Procedure: The novel compounds of the present invention were tested for their ability to inhibit proliferation of the human cervical cancer (HeLa) and colon carcinoma (HCT116) cells.
In this assay, also referred to as the Vialight Assay, cellular ATP levels are measured as a means of quantifying cellular proliferation. This assay makes use of a bioluminescent method from Cambrex (ViaLight PLUS, cat. #LT07-121). In the presence of ATP, luciferase converts luciferin to oxyluciferin and light. The amount of light produced (emission at 565 nm) is measured and correlates with a relative amount of proliferation. Human cervical cancer (HeLa) or colon carcinoma (HCT116) cells were incubated with vehicle or increasing concentrations of compound for 48, 72 or 96 hours. Cell proliferation was quantified by adding the cell lysis reagent (provided in the Vialight assay kit) directly to culture wells, followed by addition of the ATP-monitoring reagent (containing luciferase/luciferin). The amount of light produced is then measured (emission at 565 nm). The quantity of light produced, as measured by […], is directly proportional to the number of living cells in culture.

histone deacetylase, subtype 1 (HDAC1), sequence (Q13547 whole entry): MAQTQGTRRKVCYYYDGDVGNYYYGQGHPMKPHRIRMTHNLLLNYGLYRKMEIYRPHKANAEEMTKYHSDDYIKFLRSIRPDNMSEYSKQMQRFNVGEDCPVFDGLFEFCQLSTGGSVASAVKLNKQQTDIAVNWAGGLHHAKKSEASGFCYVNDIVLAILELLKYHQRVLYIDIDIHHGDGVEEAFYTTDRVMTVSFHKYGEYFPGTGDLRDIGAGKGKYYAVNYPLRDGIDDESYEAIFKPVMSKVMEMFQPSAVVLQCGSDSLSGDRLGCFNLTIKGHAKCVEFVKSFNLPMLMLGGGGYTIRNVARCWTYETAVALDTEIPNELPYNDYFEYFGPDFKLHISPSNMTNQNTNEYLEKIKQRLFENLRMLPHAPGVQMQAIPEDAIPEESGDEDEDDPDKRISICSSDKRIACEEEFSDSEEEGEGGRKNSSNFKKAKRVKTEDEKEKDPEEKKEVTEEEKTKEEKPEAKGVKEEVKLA

| Compound | IC50 [1] | IC50 [2] |
| --- | --- | --- |
| Nc1ccc(-c2ccccc2)cc1NC(=O)c1ccc(CNC(=O)Cc2cccnc2)cc1 [Example 51, N-(4-aminobiphenyl-3-yl)-4-{[(pyridin-3-ylacetyl)amino]methyl}benzamide] | 140 nM | 2100 nM |
| CNCCCN(C)Cc1ccc(C(=O)Nc2cc(-c3ccccc3)ccc2N)cc1 [Example 64, N-(4-amino-3-biphenylyl)-4-({methyl[3-(methylamino)propyl]amino}methyl)benzamide] | 18 nM | 540 nM |
| Cc1c(CNCc2ccc(C(=O)Nc3cc(-c4ccccc4)ccc3N)cc2)cnn1C [Example 63, N-(4-amino-3-biphenylyl)-4-({[(1,5-dimethyl-1H-pyrazol-4-yl)methyl]amino}methyl)benzamide] | 13 nM | 670 nM |
| Nc1ccc(-c2cccs2)cc1NC(=O)c1ccc(CNC(=O)C2CCC2)cc1 [Example 43, N-[2-amino-5-(2-thienyl)phenyl]-4-{[(cyclobutylcarbonyl)amino]methyl}benzamide] | 11 nM | 130 nM |
| Nc1ccc(-c2ccccc2)cc1NC(=O)c1ccc(CN2C(=O)OC[C@H]2Cc2ccccc2)cc1 [Example 119, N-(4-aminobiphenyl-3-yl)-4-{[(4R)-2-oxo-4-(phenylmethyl)-1,3-oxazolidin-3-yl]methyl}benzamide] | 89 nM | 1700 nM |
| Nc1ccc(-c2ccccc2)cc1NC(=O)c1ccc(CNC(=O)Cc2ccccn2)cc1 [Example 50, N-(4-aminobiphenyl-3-yl)-4-{[(pyridin-2-ylacetyl)amino]methyl}benzamide] | 19 nM | 300 nM |
| Nc1ccc(-c2ccsc2)cc1NC(=O)c1ccc(CNCC(=O)O)cc1 [Example 125, {[4-({[2-amino-5-(3-thienyl)phenyl]amino}carbonyl)benzyl]amino}acetic acid] | 42 nM | > 20000 nM |
| Nc1ccc(-c2ccccc2)cc1NC(=O)c1ccc(CNC(=O)C2CCC2)cc1 [Example 30, N-(4-aminobiphenyl-3-yl)-4-{[(cyclobutylcarbonyl)amino]methyl}benzamide] | 23 nM | 220 nM |
| Nc1ccc(-c2cccs2)cc1NC(=O)c1ccc(CNC(=O)[C@@H]2CCCN2)cc1 [Example 57, (2S)-N-[4-({[2-amino-5-(2-thienyl)phenyl]amino}carbonyl)benzyl]pyrrolidine-2-carboxamide] | 18 nM | 280 nM |
| Nc1ccc(-c2ccccc2)cc1NC(=O)c1ccc(CNC(=O)OCc2ccccn2)cc1 [Example 59, pyridin-2-ylmethyl[(4-{[(4-aminobiphenyl-3-yl)amino]carbonyl}phenyl)methyl]carbamate] | 20 nM | 440 nM |
| Nc1ccc(-c2ccccc2)cc1NC(=O)c1ccc(CNC(=O)C2CCCCC2)cc1 [Example 32, N-(4-aminobiphenyl-3-yl)-4-{[(cyclohexylcarbonyl)amino]methyl}benzamide] | 42 nM | 340 nM |
| O=C(Nc1cc(-c2ccccc2)ccc1O)c1ccc(CNCCc2cccnc2)cc1 [Example 105, N-(4-hydroxy-3-biphenylyl)-4-({[2-(3-pyridinyl)ethyl]amino}methyl)benzamide] | 2500 nM | – |
| CC(C)CNCc1ccc(C(=O)Nc2cc(-c3ccccc3)ccc2O)cc1 [Example 73, N-(4-hydroxy-3-biphenylyl)-4-[(isobutylamino)methyl]benzamide] | 110 nM | – |
| O=C(Nc1cc(-c2ccccc2)ccc1O)c1ccc(CNCCCc2ccccc2)cc1 [Example 89, N-(4-hydroxy-3-biphenylyl)-4-{[(3-phenylpropyl)amino]methyl}benzamide] | 450 nM | – |
| CC(C)(C)OC(=O)NCc1ccc(C(=O)Nc2cc(-c3ccccc3)ccc2O)cc1 [Example 7, 1,1-dimethylethyl[(4-{[(4-hydroxybiphenyl-3-yl)amino]carbonyl}phenyl)methyl]carbamate] | 70 nM | – |

The next lines start with the values.

| IC50 [1] | IC50 [2] | Compound |
| --- | --- | --- |
| 9.5 nM | 87 nM | CC(=O)N(Cc1ccc(C(=O)Nc2cc(-c3cccs3)ccc2N)cc1)Cc1cn(C)nn1 [Example 123, 4-({Acetyl[(1-methyl-1H-1,2,3-triazol-4-yl)methyl]amino}methyl)-N-[2-amino-5-(2-thienyl)phenyl]benzamide] |
| 11 nM | 120 nM | CC(=O)NCc1ccc(C(=O)Nc2cc(-c3cccs3)ccc2N)cc1 [Example 36, 4-[(acetylamino)methyl]-N-[2-amino-5-(2-thienyl)phenyl]benzamide] |
| 84 nM | 920 nM | Nc1ccc(-c2cccs2)cc1NC(=O)c1ccc(CN2C(=O)OC[C@H]2Cc2ccccc2)cc1 [Example 120, N-[2-amino-5-(2-thienyl)phenyl]-4-{[(4R)-2-oxo-4-(phenylmethyl)-1,3-oxazolidin-3-yl]methyl}benzamide] |
| 16 nM | 230 nM | CCOC(=O)NCc1ccc(C(=O)Nc2cc(-c3ccccc3)ccc2N)cc1 [Example 10, ethyl[(4-{[(4-aminobiphenyl-3-yl)amino]carbonyl}phenyl)methyl]carbamate] |
| – | 820 nM | Nc1ccc(-c2ccccc2)cc1NC(=O)c1ccc(CNC(=O)OCc2ccccc2)cc1 [Example 15, phenylmethyl[(4-{[(4-aminobiphenyl-3-yl)amino]carbonyl}phenyl)methyl]carbamate] |
| 15 nM | 120 nM | CC(C)CC(=O)NCc1ccc(C(=O)Nc2cc(-c3cccs3)ccc2N)cc1 [Example 42, N-[2-amino-5-(2-thienyl)phenyl]-4-{[(3-methylbutanoyl)amino]methyl}benzamide] |
| 15 nM | 96 nM | Nc1ccc(-c2cccs2)cc1NC(=O)c1ccc(CNC(=O)C2CC2)cc1 [Example 39, N-[2-amino-5-(2-thienyl)phenyl]-4-{[(cyclopropylcarbonyl)amino]methyl}benzamide] |
| 16 nM | 150 nM | CC(C)C(=O)NCc1ccc(C(=O)Nc2cc(-c3cccs3)ccc2N)cc1 [Example 40, N-[2-amino-5-(2-thienyl)phenyl]-4-{[(2-methylpropanoyl)amino]methyl}benzamide] |
| 45 nM | 390 nM | CC(C)COC(=O)NCc1ccc(C(=O)Nc2cc(-c3ccccc3)ccc2N)cc1 [Example 13, 2-methylpropyl[(4-{[(4-aminobiphenyl-3-yl)amino]carbonyl}phenyl)methyl]carbamate] |
| 31 nM | 300 nM | CC(C)COC(=O)NCc1ccc(C(=O)Nc2cc(-c3cccs3)ccc2N)cc1 [Example 20, 2-methylpropyl {[4-({[2-amino-5-(2-thienyl)phenyl]amino}carbonyl)phenyl]methyl}carbamate] |
| 16 nM | 340 nM | Nc1ccc(-c2ccccc2)cc1NC(=O)c1ccc(CNC(=O)CCc2cccnc2)cc1 [Example 53, N-(4-aminobiphenyl-3-yl)-4-{[(3-pyridin-3-ylpropanoyl)amino]methyl}benzamide] |
| 10 nM | 150 nM | CC(C)C(=O)NCc1ccc(C(=O)Nc2cc(-c3ccccc3)ccc2N)cc1 [Example 27, N-(4-aminobiphenyl-3-yl)-4-{[(2-methylpropanoyl)amino]methyl}benzamide] |
| 64 nM | 1400 nM | Nc1ccc(-c2ccccc2)cc1NC(=O)c1ccc(CN2C(=O)OC[C@@H]2c2ccccc2)cc1 [Example 118, N-(4-aminobiphenyl-3-yl)-4-{[(4S)-2-oxo-4-phenyl-1,3-oxazolidin-3-yl]methyl}benzamide] |
| – | 130 nM | CC(C)OC(=O)NCc1ccc(C(=O)Nc2cc(-c3ccccc3)ccc2N)cc1 [Example 11, 1-methylethyl[(4-{[(4-aminobiphenyl-3-yl)amino]carbonyl}phenyl)methyl]carbamate] |
| – | 190 nM | Nc1ccc(-c2cccs2)cc1NC(=O)c1ccc(CNC(=O)C2CCCCC2)cc1 [Example 45, N-[2-amino-5-(2-thienyl)phenyl]-4-{[(cyclohexylcarbonyl)amino]methyl}benzamide] |
| 350 nM | – | CN(Cc1ccccc1)Cc1ccc(C(=O)Nc2cc(-c3ccccc3)ccc2O)cc1 [Example 88, 4-{[benzyl(methyl)amino]methyl}-N-(4-hydroxy-3-biphenylyl)benzamide] |
| 17 nM | – | Nc1ccc(-c2cccnc2)cc1NC(=O)c1ccc(CNC(=O)OCc2cccnc2)cc1 [Example 3, pyridin-3-ylmethyl[(4-{[(2-amino-5-pyridin-3-ylphenyl)amino]carbonyl}phenyl)methyl]carbamate] |
| 76 nM | – | O=C(Nc1cc(-c2ccccc2)ccc1O)c1ccc(CNC2CC2)cc1 [Example 75, 4-[(cyclopropylamino)methyl]-N-(4-hydroxy-3-biphenylyl)benzamide] |
| – | 380 nM | Nc1ccc(-c2ccccc2)cc1NC(=O)c1ccc(CNC(=O)OCc2cccnc2)cc1 [Example 1, Pyridin-3-ylmethyl[(4-{[(4-aminobiphenyl-3-yl)amino]carbonyl}phenyl)methyl]carbamate] |
| 78 nM | – | CN1CCC(CN(C)Cc2ccc(C(=O)Nc3cc(-c4ccccc4)ccc3O)cc2)CC1 [Example 115, N-(4-hydroxy-3-biphenylyl)-4-({methyl[(1-methyl-4-piperidinyl)methyl]amino}methyl)benzamide] |
